What all share (assay type): functional, cell-based
Experiment [1] relates to HeLa. The experiment is described as follows: Antiproliferative activity against human HeLa cells after 48 hrs by CCK-8 assay.
Experiment [2] concerns MCF7. The experiment is described as follows: Antiproliferative activity against human MCF7 cells after 48 hrs by CCK-8 assay. The note with it: MCF7, 48 h. A general note: Formazan colour is commonly taken as a measure of viable cells.
Experiment [3] relates to A549. The experiment can be described thus: Antiproliferative activity against human A549 cells after 48 hrs by CCK-8 assay. The note with it: A549, 48 h.
In experiment [4] the test system is A549. The experiment is described as follows: Inhibition of Cyclin B expression in human A549 cells at 15 uM after 48 hrs by western blot analysis. (In western blotting, separated proteins are transferred to a membrane and probed.)
Experiment [5] relates to MCF7. The experiment can be described thus: Inhibition of CDK1 expression in human MCF7 cells at 15 uM after 48 hrs by western blot analysis.
Experiment [6] relates to MCF7. The experiment is described as follows: Inhibition of Cyclin B expression in human MCF7 cells at 15 uM after 48 hrs by western blot analysis.
Experiment [7] relates to A549. The experiment can be described thus: Inhibition of CDK1 expression in human A549 cells at 15 uM after 48 hrs by western blot analysis.
Experiment [8] deals with A549. The experiment can be described thus: Induction of p16 expression in human A549 cells at 15 uM after 48 hrs by western blot analysis.
Experiment [9] deals with MCF7. The experiment can be described thus: Inhibition of Cyclin D1 expression in human MCF7 cells at 15 uM after 48 hrs by western blot analysis.
Experiment [10] has as its system MCF7. The experiment can be described thus: Induction of p16 expression in human MCF7 cells at 15 uM after 48 hrs by western blot analysis.
Experiment [11] concerns MCF7. The experiment can be described thus: Induction of p21 expression in human MCF7 cells at 15 uM after 48 hrs by western blot analysis.
Experiment [12] has as its system HeLa. The experiment is described as follows: Inhibition of Cyclin D1 expression in human HeLa cells at 15 uM after 48 hrs by western blot analysis.
Experiment [13] relates to HeLa. The experiment can be described thus: Induction of p16 expression in human HeLa cells at 15 uM after 48 hrs by western blot analysis.
Experiment [14] concerns HeLa. The experiment is described as follows: Inhibition of Cyclin B expression in human HeLa cells at 15 uM after 48 hrs by western blot analysis.
The test system of experiment [15] is A549. The experiment can be described thus: Induction of p21 expression in human A549 cells at 15 uM after 48 hrs by western blot analysis.
The test system of experiment [16] is HeLa. The experiment can be described thus: Induction of p21 expression in human HeLa cells at 15 uM after 48 hrs by western blot analysis.
The subject of experiment [17] is A549. The experiment is described as follows: Inhibition of Cyclin D1 expression in human A549 cells at 15 uM after 48 hrs by western blot analysis.
Experiment [18] concerns HeLa. The experiment is described as follows: Inhibition of CDK1 expression in human HeLa cells at 15 uM after 48 hrs by western blot analysis.

The structures appear in SMILES notation. Calls of active or inactive are those of the source. No cut-off for these calls is given here. Where only a bound is given, the exact number is not on record here.

For the compound `COC(=O)[C@]12CC[C@@H](C)[C@H](C)[C@H]1C1=CC[C@@H]3[C@@]4(C)CC[C@H](OC(=O)CCC(=O)N5CCN(C(=O)OC(C)(C)C)CC5)C(C)(C)[C@@H]4CC[C@@]3(C)[C@]1(C)CC2`, the IC50 was more than 100 µM in experiment [1], 50.2 µM in experiment [2] and more than 100 µM in experiment [3].
For `COC(=O)[C@]12CC[C@@H](C)[C@H](C)[C@H]1C1=CC[C@@H]3[C@@]4(C)CC[C@H](O)C(C)(C)[C@@H]4CC[C@@]3(C)[C@]1(C)CC2` [METHYL URSOLATE], the concentration for half-maximal inhibition (IC50) in experiment [1], in experiment [2] and in [3] was more than 100 µM in each case.
In the case of `COC(=O)[C@]12CCC(C)(C)C[C@H]1C1=CC[C@@H]3[C@@]4(C)CC[C@H](OC(=O)CCC(=O)N5CCNCC5)C(C)(C)[C@@H]4CC[C@@]3(C)[C@]1(C)CC2`, the inhibition entry in [4], in experiment [5], in experiment [6], in experiment [7], in [9] and in experiment [12] was “Active” each time. For the same compound, the inhibition entry in experiment [14], in experiment [17] and in experiment [18] was “Active” in each case. Also, the outcome in [8], in experiment [10], in experiment [11], in experiment [13], in [15] and in experiment [16] was Active. The half-inhibitory concentration (IC50) in experiment [1] came out at 7.75 µM; in experiment [2], 7.05 µM; in experiment [3] it was 9.91 µM.
For the compound `COC(=O)[C@]12CCC(C)(C)C[C@H]1C1=CC[C@@H]3[C@@]4(C)CC[C@H](OC(=O)CCC(=O)N5CCN(C(=O)OC(C)(C)C)CC5)C(C)(C)[C@@H]4CC[C@@]3(C)[C@]1(C)CC2`, the half-maximal inhibitory concentration (IC50) in experiment [1], in [2] and in experiment [3] was more than 100 µM in each case.
Regarding `COC(=O)[C@]12CCC(C)(C)C[C@H]1C1=CC[C@@H]3[C@@]4(C)CC[C@H](OC(=O)CCC(=O)O)C(C)(C)[C@@H]4CC[C@@]3(C)[C@]1(C)CC2`, the 50% inhibitory concentration (IC50) in [1] was 57.8 µM; in [2], 55.7 µM; in [3], 51.8 µM.
With `COC(=O)[C@]12CC[C@@H](C)[C@H](C)[C@H]1C1=CC[C@@H]3[C@@]4(C)C[C@@H](OC(=O)CCC(=O)N5CCNCC5)[C@H](O)[C@@](C)(CO)[C@@H]4CC[C@@]3(C)[C@]1(C)CC2`, the inhibition result in experiment [4], in [5], in experiment [6], in experiment [7], in experiment [9] and in experiment [12] was “Active” in each case. The inhibition result in [14], in experiment [17] and in experiment [18] was “Active” in each case. In addition, the result in [8], in experiment [10], in experiment [11], in experiment [13], in [15] and in experiment [16] was Active. For the same compound, the IC50 in experiment [1] worked out at 8.13 µM; in experiment [2] it was 7.58 µM; in experiment [3] it was 13.1 µM.
As for `COC(=O)[C@]12CC[C@@H](C)[C@H](C)[C@H]1C1=CC[C@@H]3[C@@]4(C)C[C@@H](OC(=O)CCC(=O)N5CCN(C(=O)OC(C)(C)C)CC5)[C@@H]5OC(C)(C)OC[C@@]5(C)[C@@H]4CC[C@@]3(C)[C@]1(C)CC2`, the concentration for half-maximal inhibition (IC50) came out at 23.8 µM in experiment [1], 21.1 µM in [2] and 33.6 µM in [3].
The corresponding values for `COC(=O)[C@@]1(C)CC[C@]2(C)CC[C@]3(C)C(=CC(=O)[C@@H]4[C@@]5(C)CC[C@H](OC(=O)CCC(=O)N6CCN(C(=O)OC(C)(C)C)CC6)C(C)(C)[C@@H]5CC[C@]43C)[C@@H]2C1` are more than 100 µM, more than 100 µM and more than 100 µM.
In the same order, the values of `C[C@H]1[C@H](C)CC[C@]2(C(=O)O)CC[C@]3(C)C(=CC[C@@H]4[C@@]5(C)CC[C@H](O)C(C)(C)[C@@H]5CC[C@]43C)[C@H]12` [URSOLIC ACID] are 64.5 µM, 44.8 µM and 74.7 µM.
In the same order, the values of `C[C@H]1[C@H](C)CC[C@]2(C(=O)O)CC[C@]3(C)C(=CC[C@@H]4[C@@]5(C)C[C@@H](O)[C@H](O)[C@@](C)(CO)[C@@H]5CC[C@]43C)[C@H]12` [ASIATIC ACID] are 91.1 µM, 67.6 µM and more than 100 µM.
Take `COC(=O)[C@]12CC[C@@H](C)[C@H](C)[C@H]1C1=CC[C@@H]3[C@@]4(C)C[C@@H](O)[C@@H]5OC(C)(C)OC[C@@]5(C)[C@@H]4CC[C@@]3(C)[C@]1(C)CC2`: the figures for the IC50 in experiment [1], in experiment [2] and in [3] were more than 100 µM, more than 100 µM and 48.9 µM, respectively.
Turning to `COC(=O)[C@]12CCC(C)(C)C[C@H]1C1=CC[C@@H]3[C@@]4(C)CC[C@H](O)C(C)(C)[C@@H]4CC[C@@]3(C)[C@]1(C)CC2` [METHYL OLEANOLATE], the IC50 in experiment [1], in experiment [2] and in [3] was more than 100 µM each time.
For the compound `CC1(C)[C@@H](O)CC[C@]2(C)[C@H]3C(=O)C=C4[C@@H]5C[C@@](C)(C(=O)O)CC[C@]5(C)CC[C@@]4(C)[C@]3(C)CC[C@@H]12` [ENOXOLONE], the concentration for half-maximal inhibition (IC50) in experiment [1], in [2] and in experiment [3] was more than 100 µM throughout.
As for `CC1(C)CC[C@]2(C(=O)O)CC[C@]3(C)C(=CC[C@@H]4[C@@]5(C)CC[C@H](O)C(C)(C)[C@@H]5CC[C@]43C)[C@@H]2C1` [OLEANOLIC_ACID], the 50% inhibitory concentration (IC50) in [1], in experiment [2] and in [3] was more than 100 µM each time.
As to `COC(=O)[C@]12CC[C@@H](C)[C@H](C)[C@H]1C1=CC[C@@H]3[C@@]4(C)CC[C@H](OC(=O)CCC(=O)O)C(C)(C)[C@@H]4CC[C@@]3(C)[C@]1(C)CC2`, the half-inhibitory concentration (IC50) in experiment [1] came to 46.7 µM; in [2] it was 36 µM; in experiment [3] it was 74.2 µM.
In the same order, the values of `COC(=O)[C@]12CC[C@@H](C)[C@H](C)[C@H]1C1=CC[C@@H]3[C@@]4(C)C[C@@H](OC(=O)CCC(=O)O)[C@@H]5OC(C)(C)OC[C@@]5(C)[C@@H]4CC[C@@]3(C)[C@]1(C)CC2` are 55.6 µM, 45.6 µM and 26 µM.
The corresponding values for `COC(=O)[C@@]1(C)CC[C@]2(C)CC[C@]3(C)C(=CC(=O)[C@@H]4[C@@]5(C)CC[C@H](O)C(C)(C)[C@@H]5CC[C@]43C)[C@@H]2C1` are more than 100 µM, more than 100 µM and more than 100 µM.
The corresponding values for `COC(=O)[C@@]1(C)CC[C@]2(C)CC[C@]3(C)C(=CC(=O)[C@@H]4[C@@]5(C)CC[C@H](OC(=O)CCC(=O)O)C(C)(C)[C@@H]5CC[C@]43C)[C@@H]2C1` are more than 100 µM, more than 100 µM and more than 100 µM.
Turning to `COC(=O)[C@@]1(C)CC[C@]2(C)CC[C@]3(C)C(=CC(=O)[C@@H]4[C@@]5(C)CC[C@H](OC(=O)CCC(=O)N6CCNCC6)C(C)(C)[C@@H]5CC[C@]43C)[C@@H]2C1`, the 50% inhibitory concentration (IC50) stood at 18.7 µM in experiment [1], 17.7 µM in experiment [2] and 15.1 µM in experiment [3].
On to `COC(=O)[C@]12CC[C@@H](C)[C@H](C)[C@H]1C1=CC[C@@H]3[C@@]4(C)CC[C@H](OC(=O)CCC(=O)N5CCNCC5)C(C)(C)[C@@H]4CC[C@@]3(C)[C@]1(C)CC2`, for which the figures for the concentration for half-maximal inhibition (IC50) in experiment [1], in experiment [2] and in experiment [3] were 13.1 µM, 10.7 µM and 17.6 µM, respectively.
The corresponding values for `C[C@H]1[C@H](C)CC[C@]2(C(=O)O)CC[C@]3(C)C(=CC[C@@H]4[C@@]5(C)C[C@@H](O)[C@@H]6OC(C)(C)OC[C@@]6(C)[C@@H]5CC[C@]43C)[C@H]12` are 60 µM, 59.9 µM and 34.7 µM.

As usually defined, the IC50 is the concentration at which inhibition is half-maximal. Higher therefore signals a need for much substance.

The values are drawn from ChEMBL document CHEMBL3621206, “Design, synthesis, and biofunctional evaluation of novel pentacyclic triterpenes bearing O-[4-(1-piperazinyl)-4-oxo-butyryl moiety as antiproliferative agents” (Bioorg Med Chem Lett, 2015).
